According to the supplement of paper PMC10307832:

Tests used:
Experiment in all cases: relative viability (nuclei count vs DMSO), 5 days (fraction); higher = more cells survive
[1] = compound: C1=CC2=C(C=C(C(=C2N=C1)O)N=NC3=CC4=C(C=C3)C=C(C=C4)S(=O)(=O)O)S(=O)(=O)O + CC(=O)Nc1cccc(-n2c(=O)n(C3CC3)c(=O)c3c(Nc4ccc(I)cc4F)n(C)c(=O)c(C)c32)c1 [Trametinib] (partner 0.02 µM)
Outline: (§1)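 Nuclei were stained with Hoechst during a one-step fixation (final 0.05% Triton X-100, 1% formaldehyde, 1 ug/ml Hoechst) carried out 5 days after dosing, then counted on 4× images. The cells, lung cancer lines in 1536-well plates, had been dosed by pin tool the day after seeding with one drug alone or a fixed anchor-drug dose plus five library-drug doses (not always all listed) in √10 steps. Relative viability is the nuclei count in treated wells divided by that in vehicle wells, and each value is the median of duplicate plates.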

[2] = compound: C1=CC2=C(C=C(C(=C2N=C1)O)N=NC3=CC4=C(C=C3)C=C(C=C4)S(=O)(=O)O)S(=O)(=O)O + CS(=O)(=O)N1CCN(Cc2cc3nc(-c4cccc5[nH]ncc45)nc(N4CCOCC4)c3s2)CC1 [Pictilisib] (partner 1 µM)
Outline: as §1

[3] = compound: C1=CC2=C(C=C(C(=C2N=C1)O)N=NC3=CC4=C(C=C3)C=C(C=C4)S(=O)(=O)O)S(=O)(=O)O + NC(=O)Nc1cc(-c2cccc(F)c2)sc1C(=O)N[C@H]1CCCNC1 [AZD7762] (partner 0.2 µM)
Outline: as §1

AT-7519 + Phenformin = compound: O=C(NC1CCNCC1)c1n[nH]cc1NC(=O)c1c(Cl)cccc1Cl [AT-7519] + N=C(N)NC(=N)NCCc1ccccc1 [Phenformin] (partner 250 µM)
Outline: as §1

Cell Line | relative viability ([1]; first compound 0.08 µM) | relative viability ([1]; first compound 0.253 µM) | relative viability ([1]; first compound 0.8 µM) | relative viability ([1]; first compound 2.53 µM) | relative viability ([1]; first compound 8 µM) | relative viability ([2]; first compound 0.08 µM) | relative viability ([2]; first compound 0.253 µM) | relative viability ([2]; first compound 0.8 µM) | relative viability ([2]; first compound 2.53 µM) | relative viability ([2]; first compound 8 µM) | relative viability ([3]; first compound 0.08 µM) | relative viability ([3]; first compound 0.253 µM) | relative viability ([3]; first compound 0.8 µM) | relative viability ([3]; first compound 2.53 µM) | relative viability ([3]; first compound 8 µM) | relative viability (AT-7519 + Phenformin; first compound 0.01 µM) | relative viability (AT-7519 + Phenformin; first compound 0.03162 µM) | relative viability (AT-7519 + Phenformin; first compound 0.3162 µM) | relative viability (AT-7519 + Phenformin; first compound 1 µM)
NCI-H1755 | 0.761 | 0.754 | 0.739 | 0.761 | 0.732 | 0.407 | 0.44 | 0.446 | 0.47 | 0.246 | 0.535 | 0.419 | 0.361 | 0.457 | 0.459 | 0.638 | 0.633 | 0.608 | 0.546
HCC-78 | 0.804 | 0.724 | 0.813 | 0.712 | 0.675 | 0.206 | 0.178 | 0.221 | 0.219 | 0.118 | 0.725 | 0.628 | 0.675 | 0.657 | 0.591 | 0.712 | 0.604 | 0.596 | 0.662
NCI-H322M | 0.535 | 0.544 | 0.566 | 0.504 | 0.528 | 0.505 | 0.473 | 0.444 | 0.442 | 0.524 | 0.576 | 0.625 | 0.522 | 0.598 | 0.71 | 0.796 | 0.784 | 0.612 | 0.448
NCI-H3122 | 0.218 | 0.225 | 0.227 | 0.242 | 0.225 | 0.629 | 0.552 | 0.555 | 0.616 | 0.638 | 0.967 | 0.976 | 0.975 | 1.03 | 0.962 | 0.405 | 0.37 | 0.325 | 0.13
NCI-H2087 | 0.2 | 0.213 | 0.196 | 0.217 | 0.236 | 1.07 | 0.863 | 0.77 | 0.945 | 0.909 | 1.31 | 1.51 | 1.27 | 1.38 | 1.29 | 0.472 | 0.442 | 0.479 | 0.172
LC-2-ad | 0.932 | 0.851 | 0.941 | 0.892 | 0.98 | 0.429 | 0.476 | 0.532 | 0.405 | 0.423 | 0.894 | 0.802 | 0.829 | 0.847 | 0.796 | 0.522 | 0.573 | 0.498 | 0.413
NCI-H1915 | 0.268 | 0.299 | 0.288 | 0.301 | 0.28 | 0.883 | 0.97 | 0.856 | 0.95 | 0.952 | 0.735 | 0.706 | 0.661 | 0.688 | 0.679 | 0.365 | 0.384 | 0.345 | 0.376
NCI-H1793 | 0.53 | 0.387 | 0.452 | 0.347 | 0.348 | 0.313 | 0.323 |  | 0.291 | 0.369 | 0.411 | 0.407 | 0.481 | 0.497 | 0.455 | 0.354 | 0.457 | 0.434 | 0.387
RERF-LC-KJ | 0.935 | 0.864 | 0.849 | 0.96 | 0.644 | 0.623 | 0.648 | 0.588 | 0.56 | 0.543 | 0.945 | 0.949 | 0.924 | 1.03 | 0.552 | 0.456 | 0.418 | 0.388 | 0.217
LXF-289 | 0.718 | 0.682 | 0.638 | 0.679 | 0.62 | 0.874 | 0.684 | 0.73 | 0.793 | 0.8 | 1.23 | 1.06 | 1.07 | 1.11 | 1.15 | 0.574 | 0.524 | 0.489 | 0.53
PC-14 | 0.743 | 0.688 | 0.782 | 0.838 | 0.69 | 0.845 | 0.682 | 0.621 | 0.585 | 0.673 | 0.353 | 0.294 | 0.305 | 0.375 | 0.328 | 0.519 | 0.566 | 0.424 | 0.314
NCI-H650 | 0.947 | 0.947 | 0.875 | 0.948 | 0.894 | 0.907 | 0.859 | 0.909 | 0.92 | 0.833 | 0.872 | 0.996 | 0.967 | 0.922 | 0.998 | 0.492 | 0.465 | 0.49 | 0.421
NCI-H1666 | 0.874 | 0.877 | 0.861 | 0.861 | 0.903 | 0.459 | 0.383 | 0.358 | 0.42 | 0.479 | 0.868 | 0.798 | 0.787 | 0.802 | 0.771 | 0.59 | 0.568 | 0.538 | 0.402
NCI-H2085 | 0.538 | 0.512 | 0.557 | 0.582 | 0.433 | 0.38 | 0.465 | 0.406 | 0.571 | 0.497 | 0.874 | 1.03 | 0.902 | 0.971 | 0.969 | 0.744 | 0.7 | 0.759 | 0.53
NCI-H1734 | 0.728 | 0.654 | 0.687 | 0.72 | 0.694 | 0.565 | 0.434 | 0.426 | 0.492 | 0.455 | 0.633 | 0.558 | 0.566 | 0.527 | 0.566 | 0.385 | 0.342 | 0.323 | 0.175
NCI-H2126 | 0.568 | 0.539 | 0.56 | 0.606 | 0.555 | 0.505 | 0.518 | 0.506 | 0.522 | 0.523 | 1.05 | 0.971 | 0.941 | 0.939 | 0.994 | 0.552 | 0.494 | 0.491 | 0.33
EMC-BAC-2 | 0.964 | 0.853 | 0.912 | 0.997 | 0.911 | 0.514 | 0.566 | 0.522 | 0.555 | 0.349 | 1.04 | 1.1 | 1.09 | 1.14 | 0.995 | 0.52 | 0.524 | 0.495 | 0.585
